Test in all cases: In vitro proliferation under normoxia (CTG, 72 hours), Example 26
Holding throughout (type): cell-based, human
What all share (conditions): Table 21

Experiment [1] deals with H460 P53 KO #7. On the procedure:
(§1) • 1) H460 cell suspension was added to a 96-well plate (100 µL per well), with a cell density of 2000 cells/well. • 2) The cells were cultured overnight in a 37°C, 5% CO2 incubator. • 3) Compound Treatment
(§2) Monotherapy: 24 hours after cell plating, each well was supplemented with 99.5 µL of growth medium. Then, 0.5 µL of test compounds at different concentrations was added. The plate was gently shaken to ensure even mixing, and then placed in a 37°C, 5% CO2 incubator.
(§3) Combination therapy: 24 hours after cell plating, each well was supplemented with 99 µL of growth medium. Then, 0.5 µL of the combination compound Nutlin-3 was added. The plate was gently shaken to ensure even mixing, and then placed in an incubator for 2 hours. Then, 0.5 µL of test compounds at different concentrations was added. The plate was gently shaken to ensure even mixing, and then placed in a 37°C, 5% CO2 incubator. • 4) The cell plate was placed in the incubator for 72 hours. • 5) The cell plate to be tested was placed at room temperature and equilibrated for 30 minutes, and 100 µL of medium was discarded from each well. • 6) 25 µL of CTG reagent was added to each well, placed on a fast shaker to shake for 2 minutes, and placed at room temperature for 30 minutes (protected from light). • 7) The chemiluminescence signal value was read using a multifunctional microplate reader with a reading time of 1000 ms. • 8) IC50 values were calculated using Graph Pad Prism 5 software.
(§4) The p53 CRISPR/Cas9 KO plasmid (human) and p53 HDR plasmid (human) were purchased from Santa Cruz Company to construct H460 P53 KO cell lines, namely p53 knockout H460 cell lines. Three groups of H460 P53 KO cell lines were constructed and designated as H460 P53 KO # 1, H460 P53 KO # 7, and H460 P53 KO # 12.
(§5) The process for constructing p53 gene knockout cells is briefly described as follows: • H460 cells were plated in 6-well plates with 1 × 10^6 cells/well. • H460 cells were co-transfected with p53 CRISPR/Cas9 KO plasmid (h) (sc-416469) and p53 HDR plasmid (h) (sc-416469-HDR): 125 µL Opti-MEM + 1.25 µg each of the two plasmids + 5 µL P3000; 125 µL Opti-MEM + 15 µL liposome 3000 (increase volume, expected to increase transfection efficiency); they were co-incubated for 15 minutes, and then were added dropwise to the culture medium and mixed well.
(§6) After 48 h, 2 µg/mL puromycin was added for screening.
(§7) Two days later, the medium was replaced with fresh 1640 medium containing 1 µg/mL puromycin, and the medium was changed every two days.
(§8) When the cell colonies grew to a sufficient size, single colonies were picked and cultured.
(§9) When the cell number is sufficient, samples were collected for WB identification of the colonies. Colonies with no p53 expression were the p53 knockout H460 cell clones.
(§10) For the experimental procedures of this Example, please refer to the Experimental Procedure Overview in the section "Effects of compounds on in vitro H460 cell proliferation under normoxia" in Example 18.
(§11) Monotherapy: Compounds AST-3424/AST were separately administered in H460 and H460 P53 KO cell lines, respectively.
(§12) Combination therapy: Compounds AST-3424/AST were respectively used in combination with AST-3021, and respectively administeredin H460 and H460 P53 KO cell lines.
(§13) H460 P53 KO cell lines, i.e. H460 P53 KO # 1, H460 P53 KO # 7, H460 P53 KO # 12 cell lines, were used in experiments, respectively.

Experiment [2] relates to H460 P53 KO #1. On the procedure: as §1, §2, §3, §4, §5, §6, §7, §8, §9, §10, §11, §12, §13
Experiment [3] concerns H460 P53 KO #12. The method, then: as §1, §2, §3, §4, §5, §6, §7, §8, §9, §10, §11, §12, §13

A word on the IC50: it is the concentration that gives 50% inhibition. For `C[C@H](OP(=O)(N1CC1)N1CC1)c1ccc([N+](=O)[O-])c(Oc2cccc(C(=O)N(C)C)c2)c1` [AST-3424], the IC50 in experiment [1] (Homo sapiens, NCI-H460, H460 P53 KO # 7, AST-3424 alone or + 3 µM AST-3021) is 23.1 nM; in experiment [2] (Homo sapiens, NCI-H460, H460 P53 KO # 1, AST-3424 alone or + 3 µM AST-3021), 11.3 nM; in experiment [3] (Homo sapiens, NCI-H460, H460 P53 KO # 12, AST-3424 alone or + 3 µM AST-3021) it was 1.99 nM. Also, the “Ratio (monotherapy), knockout/wild” value in experiment [1] (IC50 in H460 P53 KO # 7 / H460 WT) turned out to be 100.43; in experiment [2] (IC50 in H460 P53 KO # 1 / H460 WT), 49.13; in experiment [3] (IC50 in H460 P53 KO # 12 / H460 WT), 8.65.

For the origin of these results see patent publication EP4796125A1, “TREATMENT OF PATIENT WITH NEGATIVE P53 GENE MUTATION, POSITIVE KRAS GENE MUTATION AND POSITIVE BRCA MUTATION” (Ascentawits Pharmaceuticals, Ltd., priority 2023, dated 2025).
